Experimental data published in PMC9562342, “Structural and functional analysis of EntV reveals a 12 amino acid fragment protective against fungal infections” (Nature Communications, 2022).
“And” between values parts separate entries of the source, which are not always exact repeats. Equal values may be shown once. “Also recorded” adds a separate entry of the source. Read-outs that look alike come from different tables or passages of the source. No end group written: not given here.

Legend:
[1] = test system: C. neoformans strain 40-71; test: C. elegans killing assay, C. neoformans infection; type: in vivo, Cryptococcus neoformans; details: 1 nM peptide
[2] = test system: C. albicans AzS; test: C. elegans killing assay, C. albicans paired clinical isolate before fluconazole resistance (Az^S); type: in vivo, Candida albicans
[3] = test system: C. albicans AzR; type: in vivo, Candida albicans; details: C. albicans AzR infected C. elegans, peptides 1 nM, fluconazole 4 ug/ml, Fig 4D
[4] = test system: C. albicans; test: C. albicans adhesion assay (polystyrene plates, crystal violet); type: cell-based, Candida albicans; details: for Adjusted avg / Avg Percent: Fig 3B, 10 nM, mean of 6 technical replicates; for Adjusted avg: background subtracted; for Avg Percent: relative adherence vs DMSO
Method: Similar to the methodology in[51], C. albicans strains were grown in YPD broth for 18 h at 30 °C with agitation and then subcultured for 4 h in the same conditions. […] The cell suspension was incubated for 1 h at 30 °C with agitation. Then 100 µl of the cell suspension was added to wells of a 96 well tissue culture treated polystyrene plate (Falcon) in addition to 100 µl of artificial saliva media[14],[52] containing the indicated concentrations of test compounds. The plate was then incubated at 37 °C for 90 min.
The adhered cell layer was then stained for 20 min with 40 µl of 0.08% crystal violet solution (diluted, Sigma). The crystal violet stain was removed, and the wells were then washed three times with sterile water. Adhered cells were then destained with 200 µl of 200 proof ethanol for 20 min, and 100 µl of the ethanol solution was transferred to a new well for analysis. The optical density at 595 nm (OD595) was measured using a Synergy H1 plate reader (BioTek) with Gen5 version 3.08 software (BioTek).

[5] = test system: RBCs; test: Hemolysis assay; type: cell-based, human; details: for fractional hemolysis (Toxicity): Extended Fig 6A
Method: De-identified and pooled RBCs were purchased from Rockland Immunochemicals, Inc. RBCs were prepared at 6 × 10^7 cells/mL in PBS. To 25 μL of peptide diluted appropriately to result in a final concentration of 1 nM and 1 µM, 125 μL of RBC suspension was added. The plates were gently rocked for 1 h at room temperature. The cells were then removed from suspension by centrifugation at 1000 xg for 5 min. From the experimental plate, 100 μL of the supernatant was carefully withdrawn from each well and added to a new 96-well plate. The absorbance of the solutions in each well was measured at 410 nm and each well was compared to a no-treatment control and a 100% lysis control (1% SDS).

[6] = Peptide serum stability assay; type: in vitro ADME, human
Method: One mL of RPMI supplemented with 10% (v/v) of human serum (type AB) were aliquoted and temperature-equilibrated at 37 °C for 15 min before adding a concentrated stock peptide solution resulting in a final peptide concentration of 100 µM. For each time point, 100 µL of the reaction solution was removed and added to 200 µL 96% ethanol for precipitation of serum proteins. The sample was cooled (4 °C) for 15 min and then spun at 18,000 g for 2 min to pellet the precipitated serum proteins. The reaction supernatant was analyzed using HPLC with absorbance detected at 280 nm. The peptide peak was detected first without serum treatment to assess the area under the curve for the peptide of interest. At each time point the area under the curve was calculated by HPLC and then divided by the untreated peptide area under the curve to determine the percent remaining.

[7] = test system: C. albicans; test: Mouse OPC model, fungal burden in tongue by qPCR; type: in vivo
[8] = test system: C. albicans; test: Mouse OPC model, epithelial (hyphal) invasion by histology; type: in vivo
[9] = test system: C. albicans; test: Intravenous infection model (disseminated candidiasis); type: in vivo, mouse; details: C. albicans pre-incubated with 100 nM peptide for two hours, IV injection, day 22
[10] = test system: C. albicans; test: Rat venous catheter model; type: in vivo; details: rat jugular vein catheter, 20 nM, 24 h, n of three
Method: To quantitate fungal burden after 24 h, the catheter was removed, and 1 cm of the tip placed in a one milliliter of sterile 0.9% NaCl followed by vortexing. A 1:10 serial dilution of this wash fluid was plated on SDA and colonies counted after 24 h of growth at 35 °C. […] Serial ethanol washes and critical point drying were used to dry the segments before they were mounted, and palladium-gold coated.

[11] = Solubility of peptides (biophysical characteristics); type: physicochemical
Text: Supplement 41467_2022_33613_MOESM1_ESM.docx, table 2: Supplementary Table 2. Biophysical characteristics of peptides. | column: Solubility

[12] = test system: C. albicans; test: C. elegans killing assay, C. albicans infection; details: 1 nM peptide; for Median survival: C. albicans infected C. elegans
Method: C. elegans glp-4(bn2); sek-1(km-4)[48] nematodes were propagated and maintained on E. coli strain OP50[50] that was seeded onto nematode growth medium (NGM) agar using standard techniques (Hope, 1999). To synchronize the animals, L1 stage worms on non-starved plates were washed off, filtered through a 10 μm filter (pluriSelect, pluriStrainer 10 μm), harvested by centrifugation at 750 xg for 30 seconds, transferred to OP50 seeded plates, and grown to the L4 stage. To prepare the infection plates, Fungal strains were grown in YPD broth for 24 h at 37 °C with agitation. 500 μl of the culture was plated onto BHI solid medium containing gentamycin (10 μg/ml) and grown for 24 h at 37 °C. The synchronized, L4 C. elegans were washed off the OP50 plates in 2 ml sterile M9 buffer and washed once, centrifuging at 750 xg for 30 seconds to collect animals. Animals were infected by placing them on the fungal lawn for 4 h at 25 °C. Following this exposure, they were washed off the plate and washed four times with 2 ml of sterile M9. The nematodes were then pipetted (~30 per well with two wells per condition for a total of ~60 worms assayed) into six-well plates with 2 ml of liquid medium (20% BHI broth and 80% M9) containing the indicated concentrations of test compounds. Plates were incubated at 25 °C, and worm death was scored daily. Kaplan–Meier survival curves were generated and analyzed as described in the quantification and statistical analysis section.

[13] = test system: C. albicans; test: C. albicans CFUs before and after two-hour pre-incubation with peptide; details: 100 nM, two-hour incubation in PBS
Method: To increase the chances of observing an effect, we pre-incubated C. albicans with 100 nM of EntV or the 12mer for two hours prior to intravenous (IV) injection of 1 ×10^5 CFU.
The disseminated candidiasis model[59],[60] was performed by growing C. albicans SC5314 overnight in YPD at 30 °C, then diluting 1/100 and growing in a second overnight. The late-log phase culture was collected by centrifugation at 16,000 xg for 30 s, washed in PBS, and diluted to 5 × 10^6 cells/ml in PBS containing vehicle (0.01% DMSO) or 100 nM EntV or the 12mer peptide and incubated for 2 h at room temperature. Female ICR mice 6 wks, 18–20 g, 10/experimental group were inoculated via the lateral tail vein with 0.1 ml. Animals were monitored at least twice daily for 21 days for signs of moribundity.

[14] = 10 nM and 1 nM in drinking water

VAGQLALWAVQC [12aa]
Protection of C. elegans infected with C. neoformans (in words) [1]: protected C. neoformans infected worms from killing | Median survival ([2]; C. albicans AzS infected C. elegans, peptides 1 nM, fluconazole 4 ug/ml, Fig 4C, trial 1): 12 days | Median survival ([2]; C. albicans AzS infected C. elegans, peptides 1 nM, fluconazole 4 ug/ml, Fig 4C, trial 2): 10.5 days | Median survival ([3]; trial 1): 10 days | Median survival ([3]; trial 2): 11 days | Inhibition of C. albicans adhesion to polystyrene (in words) ([4]; 1 h with peptide in PBS, then artificial saliva media 90 min, crystal violet): as effective in protecting against C. albicans infection in the worm model and inhibiting surface adhesion as full-length EntV | Adjusted avg ([4]; biological replicate 1): 0.262 | Avg Percent ([4]; biological replicate 1): 40.07% | Adjusted avg ([4]; biological replicate 2): 0.408 | Avg Percent ([4]; biological replicate 2): 48.28% | Adjusted avg ([4]; biological replicate 3): 0.161 | Avg Percent ([4]; biological replicate 3): 13.25% | Adjusted avg ([4]; biological replicate 4): 0.232 | Avg Percent ([4]; biological replicate 4): 27.81% | Lysis of red blood cells (in words) ([5]; 1 nM and 1 µM peptide, 6 x 10^7 RBC cells/mL in PBS, 1 h room temperature, absorbance 410 nm, n of 6, listed as 12mer): no lysis of red blood cells; also recorded: no toxicity | fractional hemolysis (Toxicity) ([5]; 1nM, replicate 1): 0.01086 | fractional hemolysis (Toxicity) ([5]; 1nM, replicate 2): 0.03086 | fractional hemolysis (Toxicity) ([5]; 1nM, replicate 3): 0.01386 | fractional hemolysis (Toxicity) ([5]; 1nM, replicate 4): 0.05786 | fractional hemolysis (Toxicity) ([5]; 1uM, replicate 1): 0.04886 | fractional hemolysis (Toxicity) ([5]; 1uM, replicate 2): 0.05786 | fractional hemolysis (Toxicity) ([5]; 1uM, replicate 3): 0.03286 | fractional hemolysis (Toxicity) ([5]; 1uM, replicate 4): 0.08286 | stability in the presence of 10% human serum ([6]; 10% human serum, 0 Hrs, fraction relative to 0 Hrs, mean (SD) of n = 3): 1.0 (0.0) | remaining at 2 h ([6]; 10% human serum, 2 Hrs, fraction relative to 0 Hrs, mean (SD) of n = 3, read-out: stability in the presence of 10% human serum): 44.3% | remaining at 4 h ([6]; 10% human serum, 4 Hrs, fraction relative to 0 Hrs, mean (SD) of n = 3, read-out: stability in the presence of 10% human serum): 39.3% | remaining at 24 h ([6]; 10% human serum, 24 Hrs, fraction relative to 0 Hrs, mean (SD) of n = 3, read-out: stability in the presence of 10% human serum): 12.4% | Peptide detectable (percent remaining) in serum ([6]; RPMI with 10% (v/v) human serum (type AB), 37 °C, 100 µM peptide, 24-hour incubation, HPLC 280 nm, mean of n of 3): about 10% | Stability in serum (in words) ([6]; RPMI with 10% (v/v) human serum (type AB), 37 °C, 100 µM peptide, HPLC 280 nm, n of 3): not particularly stable in serum | Fungal burden on the tongue (in words) [7, 14]: only a slight reduction in fungal burden on the tongue | Fungal burden in the tongue (in words) ([7]; 50 nM in drinking water, day 5): loss of efficacy in terms of fungal burden | Fungal burden in the tongue, established infection (in words) ([7]; 100 nM in drinking water starting at day three, sacrificed on day five): significantly less fungal burden compared to both groups of untreated animals | Fungal burden in the tongue, C. albicans DNA by qPCR (in words) ([7]; corticosteroid-suppressed mice, 100 nM in drinking water from inoculation, day 5, listed as 12mer): equally effective; also recorded: even more effective at reducing fungal burden than 4 µg/mL fluconazole | Invasion of the tongue epithelium (in words) [8, 14]: the reduction in invasion remained dramatic | Hyphal invasion of the tongue (in words) ([8]; 50 nM in drinking water, day 5): significant lowering of hyphal invasion | Hyphal invasion relative to fluconazole (in words) ([8]; 100 nM and 500 nM in drinking water versus 4 µg/mL fluconazole, day 5): slightly less prevalent | Epithelial / hyphal invasion of the tongue (in words) ([8]; mouse, in vivo, listed as 12mer): at least as effective as the full length EntV; also recorded: most reduced | Survival of mice at end of experiment (in words) [9]: about half the animals were still alive | Reduction of catheter fungal burden [10]: 1.5 logs | Solubility ([11]; Supplementary Table 2, printed as '10 µM +'): 10 µM + | Protection of C. elegans against C. albicans infection (in words) [12]: as effective in protecting against C. albicans infection in the worm model and inhibiting surface adhesion as full-length EntV | Median survival ([12]; Fig 3A, trial 1): 10.5 days | Median survival ([12]; Fig 3A, trial 2): 10 days | Median survival ([12]; Fig 3A, trial 3): 9.5 days | Median survival ([12]; Fig 3E, trial 1): 11 days | Median survival ([12]; Fig 3E, trial 2): 10 days | Median survival ([12]; Fig 3E, trial 3): 10 days | C. albicans CFUs before versus after incubation with peptide (in words) [13]: no significant difference

TNVGALWICGLAVIQAAQLS [α7-random]
Solubility [11]: 10 µM + | Median survival ([12]; Fig 2C, trial 1): 7 days | Median survival ([12]; Fig 2C, trial 2): 7 days

TNAAAAQQGGIICLLVVWLS [α7-disrupted]
Solubility [11]: 10 µM + | Median survival ([12]; Fig 2C, trial 1): 6 days | Median survival ([12]; Fig 2C, trial 2): 6 days

OC(Cn1cncn1)(Cn1cncn1)c1ccc(F)cc1F [Flu, fluconazole, reference compound]
Median survival ([2]; in vivo): 11 days and 10 days | Median survival ([3]; trial 1): 8 days | Median survival ([3]; trial 2): 6 days
